From patent publication US8680157B2, “Androgen receptor-dependent gene expression control” (Universitaetsklinikum Freiburg, priority 2005, dated 2014)

Tests used:
[1] = system: LSD1-induced activation of AR; test: Transient transfection, AR-dependent luciferase reporter with co-expressed LSD1 and AR in 293 cells; type: cell-based; conditions: R1881, 3×10^−3 M pargyline, 1×10^−3 M deprenyl or 1×10^−4 M chlorgyline, 18 hours, FIG. 4e
Protocol: 293 and CV-1 cells were cultured and transfected as described^13. LNCaP cells were cultured in phenol-red-free RPMI1640 supplemented with 10% double-stripped fetal calf serum (dsFCS) and transfected with Effectene (Qiagen). The following amounts per well were used: MMTV-LUC, ARE2x-TATA-LUC, ARE2x-TK-LUC, TK-LUC, PSA-LUC, Slp-ARU-TATA-LUC 500 ng each, 25 ng expression plasmids for AR; 500 ng expression plasmids for LSD1 1-174, LSD1 175-246, LSD1 247-852, pSUPER-control, and pSUPER-LSD1; 100 to 500 ng expression plasmids for LSD1 were transfected per well. […] Luciferase activity was assayed as described^14. All experiments were repeated at least five times in duplicate.

[2] = target: T1, LSD1 (Homo sapiens, UniProt O60341); test: Chromatin immunoprecipitation (ChIP) at the PSA promoter in LNCaP cells; type: cell-based
T1 construct: endogenous in cells; host or cells: LNCaP
Protocol: ChIP experiments were performed essentially as described^15. […] LNCaP cells were transfected three days before harvesting for ChIP with or without siRNA (Qiagen) following the manufacture's instructions. Immunoprecipitation was performed with specific antibodies (α-monoMeK9H3, α-diMeK9H3, α-triMeK9H3, α-monoMeK4H3, α-diMeK4H3, α-triMeK4H3, α-H3 (abcam), α-LSD1, and α-AR PG21 (Upstate Biotechnology) on GammaBind™-Sepharose 4B (GE-Healthcare). For PCR, 1-5 μl out of 50 μl DNA extract was used. For Re-ChIP assays, immunoprecipitations were sequentially washed with TSE I, TSE II, buffer III, and TE^15. Complexes were eluted by incubation with 10 mM DTT at 37° C. for 30 min, diluted 50 times with dilution buffer^15 followed by a second immunoprecipitation with the indicated antibody. Primer sequences were as follows: middle; PSA (−2223/−1951) 5′-[…]-3′ and 5′-[…]-3′; PCR primers for ARE I+II (PSA (−459/−121)) and ARE III (PSA (−4288/−3922)) have been described previously^16.

[3] = pargyline, R1881, FIG. 3d and data not shown

Row | Structure (SMILES) | LSD1-induced ligand-dependent activation of AR (reporter activity) [1] | demethylation of mono- and dimethyl H3-K9 during androgen-induced transcription ([2]; PSA promoter, pargyline 18 hours, 10^−8 M R1881 210 min, FIG. 3d) | methylation levels of trimethyl H3-K9 ([2]; PSA promoter, pargyline 18 hours, R1881, FIG. 3d) | methylation status of H3-K27 [2, 3] | methylation status of H4-K20 [2, 3]
1 | C#CCN(C)CCCOc1ccc(Cl)cc1Cl [clorgyline, N-methyl-N-propargyl-3-(2,4-dichlorophenoxy-)propylamine] | severely impair | – | – | – | –
2 | C#CCN(C)[C@H](C)Cc1ccccc1 [deprenyl, (R)-(−)-N,2-dimethyl-N-2-propynylphenethylamine] | severely impair | – | – | – | –
3 | C#CCN(C)Cc1ccccc1 [pargyline, N-methyl-N-2-propynyl-benzylamine] | severely impair | blocks | remains unchanged | remains unchanged | remains unchanged
